Laboratory results published in patent US12391674B2, “Heterocyclic compounds for the treatment of epilepsy” (OTSUKA PHARMACEUTICAL CO., LTD., priority 2018, dated 2025).

What was measured:
[1] = system: ICR mice; test: Rotarod test (motor coordination); type: in vivo, mouse; details: oral, rotarod 1 hour after administration
In short: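 Motor coordination was assessed in male ICR mice (Japan SLC, Inc., 5-6 weeks old, 8 per group). Animals were first trained to stay for 2 minutes on a rotarod turning at a fixed 15 rpm. One hour after oral dosing, each mouse was placed on a rod accelerating from 4 rpm to 40 rpm over 5 minutes, and latency to fall was recorded for up to 200 seconds. Latencies were expressed relative to the mean of the solvent-treated group.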

[2] = system: DBA/2 mice; test: Audiogenic seizure model; type: in vivo; details: Mus musculus, DBA/2 mice, oral, auditory stimulation 1 hour after administration, read-out: Seizure suppression
In short: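 Male and female DBA/2 mice (3 weeks old, 8/group) dosed orally at 30 mg/kg in 5% gum arabic; 1 h later exposed to 12.6 kHz, 100-110 dB tone for 1 min or until tonic seizure. Maximum seizure score (0–4) recorded; suppression rate graded A (≥90%), B (70–<90%), C (50–<70%).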

| SMILES | Motor dysfunction ([1]; dose 5 mg/kg) | inhibition in vivo at 5 mg/kg [2] | Motor dysfunction ([1]; dose 30 mg/kg) | inhibition in vivo at 30 mg/kg [2] | further results |
| --- | --- | --- | --- | --- | --- |
| O=C1Cc2nc(-c3cnc(Oc4ccccc4)nc3)ccc2N1 [Example 172, 5-(2-Phenoxypyrimidin-5-Yl)-1H-Pyrrolo[3,2-b]Pyridin-2 (3H)-One] | A (a coordination disorder of 25% or less) | > 90% |  |  |  |
| c1ccc(Oc2ncc(-c3ccc4cnnn4c3)cn2)cc1 [Example 173, 6-(2-Phenoxypyrimidin-5-Yl)-[1,2,3]Triazolo[1,5-a]Pyridine] | A (a coordination disorder of 25% or less) | > 90% |  |  |  |
| Cc1cn2cc(-c3cnc(Oc4ccccc4)nc3)ccc2n1 [Example 177] | A (a coordination disorder of 25% or less) | 70 to 90% |  |  |  |
| Cc1cn2ccc(-c3cnc(Oc4ccccc4)nc3)cc2n1 [Example 181] | A (a coordination disorder of 25% or less) | 70 to 90% |  |  |  |
| c1ccc(Oc2ncc(-c3ccn4nncc4c3)cn2)cc1 [Example 184] | A (a coordination disorder of 25% or less) | > 90% |  |  |  |
| c1ccc(Oc2ncc(-c3cnc4ncnn4c3)cn2)cc1 [Example 188] |  |  | A (a coordination disorder of 25% or less) | > 90% |  |
| Cc1cnc2ccc(-c3cnc(Oc4ccccc4)nc3)cn12 [Example 190] | A (a coordination disorder of 25% or less) | > 90% |  |  |  |
| Cc1c(-c2cnc(Oc3ccccc3)nc2)ccc2nccn12.Cl [Example 198, 5-Methyl-6-(2-Phenoxypyrimidin-5-Yl) Imidazo[1,2-a]Pyridine Hydrochloride] | A (a coordination disorder of 25% or less) | > 90% |  |  |  |
| Cc1nc2cc(-c3cnc(Oc4ccccc4)nc3)ccn2c1C [Example 204] | A (a coordination disorder of 25% or less) |  |  | > 90% |  |
| c1ccc(Oc2ncc(-c3ccn4cnnc4c3)cn2)cc1 [Example 211] |  |  | B (a coordination disorder of more than 25% and 50% or less) | > 90% |  |
| FC(F)(F)c1cn2cc(-c3cnc(Oc4ccccc4)nc3)ccc2n1 [Example 214] |  |  | A (a coordination disorder of 25% or less) | > 90% |  |
| FC(F)(F)c1cn2ccc(-c3cnc(Oc4ccccc4)nc3)cc2n1 [Example 216] | A (a coordination disorder of 25% or less) | > 90% |  |  |  |
| O=C1NCCCN1c1cnc(Oc2ccccc2)nc1 [Example 220, 1-(2-Phenoxypyrimidin-5-Yl)Tetrahydropyrimidin-2 (1H)-One] |  |  | A (a coordination disorder of 25% or less) | > 90% |  |
| O=C1CCCCN1c1cnc(Oc2cccc(F)c2)nc1 [Example 222] |  |  | A (a coordination disorder of 25% or less) | > 90% |  |
| c1ccc(Oc2ncc(N3CCCCC3)cn2)cc1 [Example 223, 2-Phenoxy-5-(Piperidine-1-Yl)Pyrimidine] |  |  | A (a coordination disorder of 25% or less) | > 90% |  |
| c1ccc(Oc2ncc(N3CCOCC3)cn2)cc1 [Example 224] |  |  | A (a coordination disorder of 25% or less) | > 90% |  |
| OC1CCN(c2cnc(Oc3ccccc3)nc2)CC1 [Example 226, 1-(2-Phenoxypyrimidin-5-Yl) Piperidin-4-Ol] | B (a coordination disorder of more than 25% and 50% or less) | > 90% |  |  |  |
| O=C1COCCN1c1cnc(Oc2ccccc2)nc1 [Example 229, 4-(2-Phenoxypyrimidin-5-Yl) Morpholin-3-One] |  |  | A (a coordination disorder of 25% or less) | > 90% |  |
| O=C1C[C@H](O)CCN1c1cnc(Oc2ccccc2)nc1 [Example 235] |  |  | A (a coordination disorder of 25% or less) | > 90% |  |
| c1ccc(Oc2ncc(-c3ccc4c(c3)OCO4)cn2)cc1 [Example 236] |  |  | A (a coordination disorder of 25% or less) | > 90% |  |
| N#Cc1cccc(-c2cnc(Oc3ccccc3)nc2)c1 [Example 237] |  |  | A (a coordination disorder of 25% or less) | > 90% |  |
| Nc1ccc(-c2cnc(Oc3ccccc3)nc2)cc1 [Example 239, 4-(2-Phenoxypyrimidin-5-Yl) Aniline] |  |  | A (a coordination disorder of 25% or less) | > 90% |  |
| NC(=O)c1ccc(-c2cnc(Oc3ccccc3)nc2)cc1 [Example 243] | A (a coordination disorder of 25% or less) | > 90% |  |  |  |
| O=C1CCc2cc(-c3cnc(Oc4ccccc4)nc3)ccc2N1 [Example 245] |  |  | A (a coordination disorder of 25% or less) | > 90% |  |

| SMILES | Motor dysfunction ([1]; dose 5 mg/kg) | inhibition in vivo at 5 mg/kg [2] | Motor dysfunction ([1]; dose 30 mg/kg) | inhibition in vivo at 30 mg/kg [2] | further results |
| --- | --- | --- | --- | --- | --- |
| c1ccc(Oc2ncc(-c3cccc4cnccc34)cn2)cc1 [Example 248] | A (a coordination disorder of 25% or less) | > 90% |  |  |  |
| O=c1cnc2cc(-c3cnc(Oc4ccccc4)nc3)ccc2[nH]1 [Example 256] | A (a coordination disorder of 25% or less) | 70 to 90% |  |  |  |
| c1ccc(Oc2ncc(-c3ccc4[nH]cnc4c3)cn2)cc1 [Example 258] | A (a coordination disorder of 25% or less) | > 90% |  |  |  |
| O=C1Cc2cc(-c3cnc(Oc4ccccc4)nc3)ccc2N1 [Example 259] | A (a coordination disorder of 25% or less) | > 90% |  |  |  |
| c1ccc(Oc2ncc(-c3ccc4[nH]ccc4c3)cn2)cc1 [Example 262, 5-(2-Phenoxypyrimidin-5-Yl)-1H-Indole] | A (a coordination disorder of 25% or less) | > 90% |  |  |  |
| Cn1ncc2ccc(-c3cnc(Oc4ccccc4)nc3)nc21 [Example 275] |  |  | A (a coordination disorder of 25% or less) | > 90% |  |
| FC(F)(F)c1nnc2ccc(-c3cnc(Oc4ccccc4)nc3)cn12 [Example 279] |  |  |  |  | Motor dysfunction ([1]; dose 1 mg/kg): A (a coordination disorder of 25% or less); inhibition in vivo at 1 mg/kg [2]: > 90% |
| c1ccc(Oc2ncc(-c3ccn4cncc4c3)cn2)cc1 [Example 283] | A (a coordination disorder of 25% or less) | > 90% |  |  |  |
| FC(F)(F)c1ncc2ccc(-c3cnc(Oc4ccccc4)nc3)cn12 [Example 285] | A (a coordination disorder of 25% or less) | > 90% |  |  |  |
| c1ccc(Oc2ncc(-c3ccc4nncn4n3)cn2)cc1 [Example 289] |  |  |  |  | Motor dysfunction ([1]; dose 1 mg/kg): A (a coordination disorder of 25% or less); inhibition in vivo at 1 mg/kg [2]: > 90% |
| c1cncc(Oc2ncc(-c3ccc4nccn4c3)cn2)c1 [Example 294] | A (a coordination disorder of 25% or less) | > 90% |  |  |  |
| FC(F)(F)c1ncc(-c2cnc(Oc3ccccc3)nc2)cn1 [Example 296] |  |  | A (a coordination disorder of 25% or less) | > 90% |  |
| N#Cc1ccc(-c2cnc(Oc3ccccc3)nc2)cn1 [Example 297] |  |  |  |  | Motor dysfunction ([1]; dose 1 mg/kg): A (a coordination disorder of 25% or less); inhibition in vivo at 1 mg/kg [2]: > 90% |
| Nc1nc2ccc(-c3cnc(Oc4ccccc4)nc3)cn2n1 [Example 298] |  |  |  |  | Motor dysfunction ([1]; dose 1 mg/kg): A (a coordination disorder of 25% or less); inhibition in vivo at 1 mg/kg [2]: > 90% |
| FC(F)(F)c1cc(-c2cnc(Oc3ccccc3)nc2)ccn1 [Example 299] | A (a coordination disorder of 25% or less) | > 90% |  |  |  |
| FC(F)(F)c1ccnc(-c2cnc(Oc3ccccc3)nc2)n1 [Example 300] |  |  | A (a coordination disorder of 25% or less) | > 90% |  |
| O=C1CCN(c2ccc(Oc3cccc(F)c3)cc2)C(=O)N1 [Example 302, 1-(4-(3-Fluorophenoxy)Phenyl)Dihydropyrimidine-2,4 (1H,3H)-Dione] |  |  | A (a coordination disorder of 25% or less) | > 90% |  |
| O=C1CCN(c2ccc(Oc3ccccc3)cc2)C(=O)N1 [Example 303] |  |  | A (a coordination disorder of 25% or less) | > 90% |  |
| O=C1CCN(c2ccc(Cc3ccccc3)cc2)C(=O)N1 [Example 304] |  |  | A (a coordination disorder of 25% or less) | > 90% |  |
| O=C1CCN(c2ccc(Cc3cccc(F)c3)cc2)C(=O)N1 [Example 305, 1-(4-(3-Fluorobenzyl)Phenyl)Dihydropyrimidine-2,4 (1H,3H)-Dione] |  |  | A (a coordination disorder of 25% or less) | > 90% |  |
| O=C1CCN(c2ccc(Oc3cccc(C(F)(F)F)c3)cc2)C(=O)N1 [Example 307] |  |  | A (a coordination disorder of 25% or less) | 70 to 90% |  |
| O=C1CCN(c2ccc(Oc3ccccc3F)cc2)C(=O)N1 [Example 309] |  |  | A (a coordination disorder of 25% or less) | > 90% |  |
| COc1cccc(Oc2ccc(N3CCC(=O)NC3=O)cc2)c1 [Example 311] |  |  | A (a coordination disorder of 25% or less) | 70 to 90% |  |
